Test results as given in patent US6838084B1, “Cytotoxic T-cell epitopes of the papilloma virus l1-protein and use thereof in diagnosis and therapy” (priority 1999, dated 2005).
Like-named read-outs stand apart in the source and are kept apart here.

Legend:
CVLP-stimulated T cells [1] = assay: Restimulation of CVLP-stimulated T cells, HLA A1-positive donor, 20 mer peptides (γ-interferon FACScan); assay type: cell-based, human; conditions: for restimulation of CVLP-stimulated T cells (CD8-positive T cells reactive by γ-interferon expression): PBMCs with 10 μg/ml peptide, HLA A1-positive donor, FIG. 4
Experimental: (§1) The name of the particular peptide with which the PBMCs were loaded is listed from left to right. “None” represents PBMCs which were incubated only with buffer.
(§2) Human T cells (4×10^5) of an HLA A1-positive donor were stimulated with HPV16 L1ΔC·E71-55 CVLPs at 37° C. for 5 weeks with weekly addition of 1 μg/ml CVLPs and 10^5 antigen-presenting cells (irradiated PMBCs), and harvested. The cells were then restimulated in 100 μl of medium at 37° C. with 10 μg/ml of the peptides listed along the X axis of FIG. 4 in the presence of 10 IU/ml IL2. Cells incubated only with buffer served as a negative control.
(§3) After one hour, 1 μl of Monensin (300 μM) was added. The cells were incubated at 37° C. for a further 5 hours. The cells were then fixed and permeabilized, and stained with α-hum CD8/PE, with α-hum CD4/Cychrome and with α-hum γ-interferon/FITC. The cells were examined in a FACScan calibur with respect to their label and the data were analyzed with the aid of Cellquest software.

CVLP-stimulated T cells [2] = assay: Restimulation of CVLP-stimulated T cells, non-HLA-classified donor, 20 mer peptides (γ-interferon FACScan); assay type: cell-based, human; conditions: for restimulation of CVLP-stimulated T cells (CD4-positive T cells reactive by γ-interferon expression): PBMCs with 10 μg/ml peptide, non-HLA-classified donor, FIG. 5; for Epitop-Information (epitope type): Table 2
Experimental: as §1
as §2, with “of a non-HLA-classified” for “of an HLA A1-positive”, “for 6” for “for 5”, “FIG. 5” for “FIG. 4”
as §3

HLA A1 molecules = conditions: Kast et al. (1994) Journal of Immunology 152, 3904-3912, cited from earlier work
CVLP-stimulated T cells [3] = assay: Restimulation of CVLP-stimulated T cells, HLA A2.01-positive donor (γ-interferon FACScan); assay type: cell-based, human; conditions: PBMCs incubated with 10 μg/ml antigen, FIG. 3
Experimental: The content of T cell-specific CD3 for each experiment is listed from left to right and the content of human γ interferon which is specific for activated cells is listed from bottom to top.
Human T cells (4×10^5) of an HLA A2.01-positive donor were stimulated with HPV16 LlΔC·E71-55 CVLPs at 37° C. for 8 weeks with weekly addition of 1 μg/ml CVLPs and 10^5 antigen-presenting cells (irradiated PMBCs), and harvested. The cells were then restimulated in 100 μl of medium at 37° C. with 10 μg/ml various antigens in the presence of 10 IU/ml IL2 and 0.5 μg/ml α-human CD28: • a) with CVLP-incubated PBMCs overnight • b) with L1 2022 peptide-incubated PBMCs overnight • c) with L1 2025 peptide (control peptide)incubated PBMCs overnight
as §3, with “Golgi Plug” for “Monensin (300 μM)”, “CD3/PE,” for “CD8/PE,”

CVLP-specific T cells = assay: Peptide-specific TNFα secretion by CVLP-stimulated T cells (WEHI cell/MTT readout); assay type: cell-based, human; conditions: PMBC + 10 μg/ml peptide, overnight, 10 IU/ml IL-2; HLA A2.01-positive donor; FIG. 1
Source text: T cells stimulated by specific, antigen-presenting PBLs release TNFα. This induces apoptosis in WEHI cells so that these cells are no longer able to process MTT into a brownish dye. Low absorption means low dye production and thus many apoptotic cells which had thus been exposed to a lot of TNFα so that the corresponding T cells had been stimulated. Thus, stimulation of T cells improves with decreasing absorption at 595 nm for a particular antigen.
Human T cells (4×10^5) of an HLA A2.01-positive donor were stimulated with HPV16 L1ΔC·E71-55 CVLPs at 37° C. for 8 weeks with weekly addition of 1 μg/ml CVLPs, 10^5 irradiated peripheral blood mononuclear cells (PMBCs) and 10 IU/ml IL-2, and harvested.
The cells were stimulated in 100 μl of medium at 37° C. overnight with different antigens (PMBC+E7 peptide; PMBC+HPV16 L1αC·E71-55 (CVLP); PMBC+5104, 5105, 5106, 5107, 5108, 5109, 5112, 5113, 10 μg/ml each) in the presence of 10 IU/ml IL-2. During this time, stimulated cells produce TNFα.
The following day, 50 μl of supernatant were removed, frozen, thawed again (in order to destroy possibly coremoved cells) and added to 50 μl of a cell suspension containing 0.9×10^6 WEHI cells, 2 μg/ml actinomycin D and 400 mM LiCl. The cells were incubated at 37° C. for 24 h. During this time, TNFα (if present in the supernatant) induces apoptosis of WEHI cells. Addition of 50 μl of a 2.5 mg/ml MTT solution in PBS stained non-apoptotic cells brown within three hours, whereas apoptotic cells remained yellow. All cells were lysed by adding 100 μl of lysis buffer (34% N,N-dimethylformamide, 20% sodium dodecyl sulfate) and incubating at 37° for at least 6 hours so that the dyes were released. Finally, absorption of the solution was measured at 595 nm.
Low absorption means low dye production and thus many apoptotic cells which had thus been exposed to a lot of TNFα so that the corresponding T cells had been stimulated. Thus, T-cell stimulation improved with decreasing absorption at 595 nm.

[4] = target: T1, MHC-1 complexes of T2 cells (Homo sapiens, UniProt P04439, I119V/I121R/I166T/I218V/L300P/L318F/N151K/N90K/P208A/P217A/Q86G/Q94H/R138H/R169H/T345S); assay type: binding; conditions: 0, 10 or 100 μg/ml peptide overnight; BB7.2 antibody, FACS; FIG. 2
T1 construct: The unloaded MHC-1 molecules which are nevertheless present on the cell surface; host or cells: T2 cells

CVLP-stimulated T cells [5] = assay: Restimulation of CVLP-stimulated T cells with peptide pools, HLA A1-positive donor; assay type: cell-based, human; conditions: common to pools E and 6
Experimental: The name of the particular peptide pool with which the PBMCs were loaded is listed from left to right. “None” represents PBMCs which were incubated only with buffer.
Human T cells (4×10^5) of an HLA A1-positive donor were stimulated with HPV16 L1ΔC·E71-55 CVLPs at 37° C. for 6 weeks with weekly addition of 1 μg/ml CVLPs and 10^5 antigen-presenting cells (irradiated PMBCs), and harvested.
The 20 mer peptides 1 to 51 were combined in peptide pools A to H and 1 to 7 according to the matrix
The T cells of an HLA A1-positive donor were then restimulated in 100 μl of medium at 37° C. with the peptide pools in the presence of 10 IU/ml IL2. In this connection, such amounts of peptide pools were used that for each individual peptide 1 μg/ml was added. Cells incubated only with buffer served as a negative control.
as §3, with “Golgi Plug” for “Monensin (300 μM)”

AEPDRAHYNIVTFCCXCDST (AEPDRAHYNIVTFCCKCDST; Human papillomavirus type 16) [Peptide 48]
restimulation of CVLP-stimulated T cells (CD8-positive T cells reactive by γ-interferon expression) (CVLP-stimulated T cells [1]): effected restimulation of CVLP-stimulated T cells

ASSNYFPTPSGSMVTSDAQI [Peptide 27]
restimulation of CVLP-stimulated T cells (CD4-positive T cells reactive by γ-interferon expression) (CVLP-stimulated T cells [2]): effected restimulation of CVLP-stimulated T cells
Epitop-Information (epitope type) (CVLP-stimulated T cells [2]): T-helper epitope

EEDEIDGPAGQAEPDRAHYN (Human papillomavirus type 16) [Peptide 47]
restimulation of CVLP-stimulated T cells (CD8-positive T cells reactive by γ-interferon expression) (CVLP-stimulated T cells [1]): effected restimulation of CVLP-stimulated T cells

ETTDLYCY (Human papillomavirus type 16) [peptide contained in peptide 45]
binding to HLA A1 molecules (HLA A1 molecules): described as HLA A1-binding peptide
binding to HLA A1 molecules (HLA A1 molecules; listed as E7 peptide 45): can bind to HLA A1 molecules

GLQYRVFRI (Human papillomavirus type 16) [Peptide 2025]
restimulation of CVLP-stimulated T cells (γ interferon, CD3) (CVLP-stimulated T cells [3]): not control peptide-incubated PBMCs, effected restimulation

HLFNRAGTV (Human papillomavirus type 16) [Peptide 5107]
stimulating CVLP-specific T cells (TNFα secretion, absorption at 595 nm) (CVLP-specific T cells): capable of stimulating CVLP-specific T cells
MHC molecules on the cell surface of T2 cells (fluorescence), indicating binding to MHC molecules [4]: significantly more MHC molecules on the cell surface

ICWGNQLFV (Human papillomavirus type 16) [Peptide 2022]
MHC molecules on the cell surface of T2 cells (fluorescence), indicating binding to MHC molecules [4]: significantly more MHC molecules on the cell surface
restimulation of CVLP-stimulated T cells (γ interferon, CD3) (CVLP-stimulated T cells [3]): effected restimulation of CVLP-stimulated T cells

ILEDWNFGL (Human papillomavirus type 16) [Peptide 5112]
stimulating CVLP-specific T cells (TNFα secretion, absorption at 595 nm) (CVLP-specific T cells): capable of stimulating CVLP-specific T cells
MHC molecules on the cell surface of T2 cells (fluorescence), indicating binding to MHC molecules [4]: significantly more MHC molecules on the cell surface

ILVPKVSGL (Human papillomavirus type 16) [Peptide 5104]
stimulating CVLP-specific T cells (TNFα secretion, absorption at 595 nm) (CVLP-specific T cells): capable of stimulating CVLP-specific T cells

MHGDTPTLH (Human papillomavirus type 16) [9 mer contained in peptide 43]
binding to HLA A1 molecules (HLA A1 molecules): described as HLA A1-binding peptides
binding to HLA A1 molecules (HLA A1 molecules; listed as E7 peptide 43): can bind to HLA A1 molecules

MLDLQPETTDLYCYEQLNDS (Human papillomavirus type 16) [Peptide 45]
peptide responsible for restimulation, deduced from pool matrix (CVLP-stimulated T cells [5]): in all probability responsible for restimulation of CVLP-stimulated T cells

NLASSNYFPT (Human papillomavirus type 16) [Peptide 2017]
MHC molecules on the cell surface of T2 cells (fluorescence), indicating binding to MHC molecules [4]: significantly more MHC molecules on the cell surface

PLGRKFLLQAGMHGDTPTLH (Human papillomavirus type 16) [Peptide 43]
restimulation of CVLP-stimulated T cells (CD8-positive T cells reactive by γ-interferon expression) (CVLP-stimulated T cells [1]): effected restimulation of CVLP-stimulated T cells
Epitop-Information (HLA restriction) (CVLP-stimulated T cells [1]; Table 2): HLA A1 restr.
Epitop-Information (epitope type) (CVLP-stimulated T cells [1]; Table 2): cytotoxic epitope

QAEPDRAHYN (Human papillomavirus type 16) [10 mer contained in overlapping peptides 47 and 48]
binding to HLA A1 molecules (HLA A1 molecules): described as HLA A1-binding peptides
binding to HLA A1 molecules (HLA A1 molecules; listed as E7 peptide 47/48): can bind to HLA A1 molecules

RLVWACVGV (Human papillomavirus type 16) [Peptide 5106]
stimulating CVLP-specific T cells (TNFα secretion, absorption at 595 nm) (CVLP-specific T cells): capable of stimulating CVLP-specific T cells
MHC molecules on the cell surface of T2 cells (fluorescence), indicating binding to MHC molecules [4]: significantly more MHC molecules on the cell surface

SLWLPSEATVYL [Peptide 2016]
MHC molecules on the cell surface of T2 cells (fluorescence), indicating binding to MHC molecules [4]: significantly more MHC molecules on the cell surface

SMVTSDAQIFNKPYWLQRAQ [Peptide 28]
restimulation of CVLP-stimulated T cells (CD4-positive T cells reactive by γ-interferon expression) (CVLP-stimulated T cells [2]): effected restimulation of CVLP-stimulated T cells
Epitop-Information (epitope type) (CVLP-stimulated T cells [2]): T-helper epitope

TLQANKSEV (Human papillomavirus type 16) [Peptide 5109]
stimulating CVLP-specific T cells (TNFα secretion, absorption at 595 nm) (CVLP-specific T cells): capable of stimulating CVLP-specific T cells
MHC molecules on the cell surface of T2 cells (fluorescence), indicating binding to MHC molecules [4]: significantly more MHC molecules on the cell surface

TLTADVMTYI (Human papillomavirus type 16) [Peptide 2018]
MHC molecules on the cell surface of T2 cells (fluorescence), indicating binding to MHC molecules [4]: significantly more MHC molecules on the cell surface

YDLQFIFQL (Human papillomavirus type 16) [Peptide 2020]
MHC molecules on the cell surface of T2 cells (fluorescence), indicating binding to MHC molecules [4]: significantly more MHC molecules on the cell surface

YLPPVPVSKV (Human papillomavirus type 16) [Peptide 2019]
MHC molecules on the cell surface of T2 cells (fluorescence), indicating binding to MHC molecules [4]: significantly more MHC molecules on the cell surface

YLRREQMFV (Human papillomavirus type 16) [Peptide 5108]
stimulating CVLP-specific T cells (TNFα secretion, absorption at 595 nm) (CVLP-specific T cells): capable of stimulating CVLP-specific T cells
